# Test results: patent publication US8802597B2, “Herbicidal pyrimidines” (E I du Pont de Nemours and Company, priority 2003, dated 2014)
# Tests used:
# Assay type in all cases: in vivo
# [1] = tested on: blackgrass (Alopecurus myosuroides); experiment: Test C postemergence; conditions: for Blackgrass plant response rating: scale 0 to 100 (0 no effect, 100 complete control)
# Procedure, shortened: (§1)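 We sprayed seeded pots preemergence and 2–18 cm seedlings postemergence with test chemicals in a non-phytotoxic solvent mixture including surfactant. Greenhouse plants were visually compared with untreated controls at 12 to 14 days and scored 0 (no effect) to 100 (complete control).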
# [2] = tested on: Italian ryegrass (Lolium multiflorum); experiment: Test C postemergence; conditions: for Ryegrass, Italian plant response rating: scale 0 to 100 (0 no effect, 100 complete control)
# Procedure, shortened: as §1
# [3] = tested on: windgrass (Apera spica-venti); experiment: Test C postemergence; conditions: for Windgrass plant response rating: scale 0 to 100 (0 no effect, 100 complete control)
# Procedure, shortened: as §1
# [4] = tested on: green foxtail (Setaria viridis); experiment: Test C postemergence; conditions: for Foxtail, Green plant response rating: scale 0 to 100 (0 no effect, 100 complete control)
# Procedure, shortened: as §1
# [5] = tested on: downy brome (Bromus tectorum); experiment: Test C postemergence; conditions: for Bromegrass, Downy plant response rating: scale 0 to 100 (0 no effect, 100 complete control)
# Procedure, shortened: as §1
# [6] = tested on: canarygrass (Phalaris minor); experiment: Test C postemergence; conditions: for Canarygrass plant response rating: scale 0 to 100 (0 no effect, 100 complete control)
# Procedure, shortened: as §1
# [7] = tested on: wild oat (Avena fatua); experiment: Test C postemergence; conditions: for Oat, Wild plant response rating: scale 0 to 100 (0 no effect, 100 complete control)
# Procedure, shortened: as §1
# [8] = tested on: wheat (Triticum aestivum); experiment: Test C postemergence; conditions: for Wheat plant response rating: scale 0 to 100 (0 no effect, 100 complete control)
# Procedure, shortened: as §1
# [9] = tested on: late watergrass (Echinochloa oryzicola); experiment: Test E flooded paddy water application; conditions: Flood, 21 days, scale 0 to 100 (0 no effect, 100 complete control)
# Procedure, shortened: (§2)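 Greenhouse pots of Tama silt loam with weeds and rice at 2.0–2.5-leaf stage, flooded to 3 cm; compounds applied directly into paddy water, depth maintained. Visual rating versus untreated controls after 21 days, 0 (no effect) to 100 (complete control); 29.5/26.7 °C, 16-h photoperiod.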
# [10] = tested on: junglerice (Echinochloa colona); experiment: Test E flooded paddy water application; conditions: Flood, 21 days, scale 0 to 100 (0 no effect, 100 complete control)
# Procedure, shortened: as §2
# [11] = tested on: rice flatsedge (Cyperus iria); experiment: Test E flooded paddy water application; conditions: Flood, 21 days, scale 0 to 100 (0 no effect, 100 complete control)
# Procedure, shortened: as §2
# [12] = tested on: smallflower umbrella sedge (Cyperus difformis); experiment: Test E flooded paddy water application; conditions: Flood, 21 days, scale 0 to 100 (0 no effect, 100 complete control)
# Procedure, shortened: as §2
# [13] = tested on: bearded (brdd.) sprangletop (Leptochloa fusca ssp. fascicularis); experiment: Test E flooded paddy water application; conditions: Flood, 21 days, scale 0 to 100 (0 no effect, 100 complete control)
# Procedure, shortened: as §2
# [14] = tested on: barnyardgrass (Echinochloa crus-galli); experiment: Test E flooded paddy water application; conditions: Flood, 21 days, scale 0 to 100 (0 no effect, 100 complete control); for Plant response rating, Barnyardgrass: 16 g ai/ha
# Procedure, shortened: as §2
smiles,measurement,setting,value
CCOC(=O)C(Cl)(Cl)c1nc(C2CC2)nc(N)c1Br [Compound 34],"Plant response rating (scale of 0 to 100), Blackgrass",[1]; 31 g ai/ha,0
same,Blackgrass plant response rating,[1]; 62 g ai/ha,35
same,Blackgrass plant response rating,[1]; 125 g ai/ha,35
same,"Plant response rating, Blackgrass","[1]; 250 g ai/ha, scale 0 to 100",45
same,"Plant response rating (scale of 0 to 100), Ryegrass, Italian",[2]; 31 g ai/ha,40
same,"Ryegrass, Italian plant response rating",[2]; 62 g ai/ha,40
same,"Ryegrass, Italian plant response rating",[2]; 125 g ai/ha,45
same,"Plant response rating, Ryegrass, Italian","[2]; 250 g ai/ha, scale 0 to 100",60
same,"Plant response rating (scale of 0 to 100), Windgrass",[3]; 31 g ai/ha,40
same,Windgrass plant response rating,[3]; 62 g ai/ha,40
same,Windgrass plant response rating,[3]; 125 g ai/ha,50
same,"Plant response rating, Windgrass","[3]; 250 g ai/ha, scale 0 to 100",60
same,"Plant response rating (scale of 0 to 100), Foxtail, Green",[4]; 31 g ai/ha,40
same,"Foxtail, Green plant response rating",[4]; 62 g ai/ha,40
same,"Foxtail, Green plant response rating",[4]; 125 g ai/ha,45
same,"Plant response rating, Foxtail, Green","[4]; 250 g ai/ha, scale 0 to 100",45
same,"Plant response rating (scale of 0 to 100), Bromegrass, Downy",[5]; 31 g ai/ha,0
same,"Bromegrass, Downy plant response rating",[5]; 62 g ai/ha,0
same,"Bromegrass, Downy plant response rating",[5]; 125 g ai/ha,30
same,"Plant response rating, Bromegrass, Downy","[5]; 250 g ai/ha, scale 0 to 100",35
same,"Plant response rating (scale of 0 to 100), Canarygrass",[6]; 31 g ai/ha,20
same,Canarygrass plant response rating,[6]; 62 g ai/ha,30
same,Canarygrass plant response rating,[6]; 125 g ai/ha,35
same,"Plant response rating, Canarygrass","[6]; 250 g ai/ha, scale 0 to 100",45
same,"Plant response rating (scale of 0 to 100), Oat, Wild",[7]; 31 g ai/ha,20
same,"Oat, Wild plant response rating",[7]; 62 g ai/ha,40
same,"Oat, Wild plant response rating",[7]; 125 g ai/ha,45
same,"Plant response rating, Oat, Wild","[7]; 250 g ai/ha, scale 0 to 100",50
same,"Plant response rating (scale of 0 to 100), Wheat",[8]; 31 g ai/ha,0
same,Wheat plant response rating,[8]; 62 g ai/ha,20
same,Wheat plant response rating,[8]; 125 g ai/ha,30
same,"Plant response rating, Wheat","[8]; 250 g ai/ha, scale 0 to 100",35
Nc1nc(-c2ccc(Cl)cc2)nc(C(=O)O)c1Br [Compound 88],"Watergrass, Late plant response rating",[9]; 32 g ai/ha,0
same,"Watergrass, Late plant response rating",[9]; 64 g ai/ha,0
same,"Watergrass, Late plant response rating",[9]; 125 g ai/ha,0
same,"Watergrass, Late plant response rating",[9]; 250 g ai/ha,0
same,"Plant response rating, Watergrass, Late",[9]; 16 g ai/ha,0
same,Junglerice plant response rating,[10]; 32 g ai/ha,0
same,Junglerice plant response rating,[10]; 64 g ai/ha,0
same,Junglerice plant response rating,[10]; 125 g ai/ha,0
same,Junglerice plant response rating,[10]; 250 g ai/ha,90
same,"Plant response rating, Junglerice",[10]; 16 g ai/ha,0
same,"Flatsedge, Rice plant response rating",[11]; 32 g ai/ha,85
same,"Flatsedge, Rice plant response rating",[11]; 64 g ai/ha,100
same,"Flatsedge, Rice plant response rating",[11]; 125 g ai/ha,100
same,"Flatsedge, Rice plant response rating",[11]; 250 g ai/ha,100
same,"Plant response rating, Flatsedge, Rice",[11]; 16 g ai/ha,50
same,"Sedge, Umbrella plant response rating",[12]; 32 g ai/ha,40
same,"Sedge, Umbrella plant response rating",[12]; 125 g ai/ha,85
same,"Sedge, Umbrella plant response rating",[12]; 250 g ai/ha,95
same,"Plant response rating, Sedge, Umbrella",[12]; 16 g ai/ha,40
same,"Sprangletop, Brdd. plant response rating",[13]; 32 g ai/ha,0
same,"Sprangletop, Brdd. plant response rating",[13]; 64 g ai/ha,0
same,"Sprangletop, Brdd. plant response rating",[13]; 125 g ai/ha,85
same,"Sprangletop, Brdd. plant response rating",[13]; 250 g ai/ha,95
same,"Plant response rating, Sprangletop, Brdd.",[13]; 16 g ai/ha,0
same,Barnyardgrass plant response rating,[14]; 32 g ai/ha,0
same,Barnyardgrass plant response rating,[14]; 64 g ai/ha,0
same,Barnyardgrass plant response rating,[14]; 125 g ai/ha,0
same,Barnyardgrass plant response rating,[14]; 250 g ai/ha,0
same,"Plant response rating, Barnyardgrass",[14],0
CCOC(=O)c1nc(-c2ccc(I)cc2)nc(N)c1Cl [Compound 133],"Watergrass, Late plant response rating",[9]; 64 g ai/ha,0
same,"Watergrass, Late plant response rating",[9]; 125 g ai/ha,0
same,"Watergrass, Late plant response rating",[9]; 250 g ai/ha,0
same,"Plant response rating, Watergrass, Late",[9]; 16 g ai/ha,0
same,"Plant response rating, Watergrass, Late",[9]; 32 g ai/ha,0
same,Junglerice plant response rating,[10]; 64 g ai/ha,0
same,Junglerice plant response rating,[10]; 125 g ai/ha,0
same,Junglerice plant response rating,[10]; 250 g ai/ha,0
same,"Plant response rating, Junglerice",[10]; 16 g ai/ha,0
same,"Plant response rating, Junglerice",[10]; 32 g ai/ha,0
same,"Flatsedge, Rice plant response rating",[11]; 64 g ai/ha,95
same,"Flatsedge, Rice plant response rating",[11]; 125 g ai/ha,95
same,"Flatsedge, Rice plant response rating",[11]; 250 g ai/ha,100
same,"Plant response rating, Flatsedge, Rice",[11]; 16 g ai/ha,30
same,"Plant response rating, Flatsedge, Rice",[11]; 32 g ai/ha,65
same,"Sedge, Umbrella plant response rating",[12]; 64 g ai/ha,95
same,"Sedge, Umbrella plant response rating",[12]; 125 g ai/ha,100
same,"Sedge, Umbrella plant response rating",[12]; 250 g ai/ha,100
same,"Plant response rating, Sedge, Umbrella",[12]; 16 g ai/ha,0
same,"Plant response rating, Sedge, Umbrella",[12]; 32 g ai/ha,0
same,"Sprangletop, Brdd. plant response rating",[13]; 64 g ai/ha,0
same,"Sprangletop, Brdd. plant response rating",[13]; 125 g ai/ha,0
same,"Sprangletop, Brdd. plant response rating",[13]; 250 g ai/ha,0
same,"Plant response rating, Sprangletop, Brdd.",[13]; 16 g ai/ha,0
same,"Plant response rating, Sprangletop, Brdd.",[13]; 32 g ai/ha,0
same,Barnyardgrass plant response rating,[14]; 32 g ai/ha,0
same,Barnyardgrass plant response rating,[14]; 64 g ai/ha,0
same,Barnyardgrass plant response rating,[14]; 125 g ai/ha,0
same,Barnyardgrass plant response rating,[14]; 250 g ai/ha,0
same,"Plant response rating, Barnyardgrass",[14],0
